Measured values reported in patent US20080076750A1, “Azetidinone Derivatives and Methods of Use Thereof” (priority 2006, published 2008).
Where two headings read alike, the source gives them in different places.

Experiments:
human Cav3.2 = target: T1, human Cav3.2 (Homo sapiens, UniProt O95180); assay: IonWorks Screen for hCaV3.2; type: cell-based; conditions: IonWorks HT, HEK cells expressing human Cav3.2, 10 minutes incubation, pulse 10; read-out: IW hCav3.2 IC50
T1 construct: expressed in transfected cells
Source text: Functional evaluation of voltage-gated ion channels can be used to determine potency and/or single concentration efficacy of the Azetidinone Derivatives. Two different methodologies can be used to measure ion currents: the Ionworks HT (Molecular Devices, Sunnyvale, Calif.) a moderate throughput voltage clamp screening platform that utilizes 96-well compound plates and conventional whole cell patch clamp for lower throughput, higher fidelity determinations.
HEK cells are transiently transfected and then selected for stable heterologous expression of different channel proteins of interest. Calcium channel cell lines expressed a resting potassium current, human Kir2.1, and the pore forming α-subunit of voltage-gated calcium channels. In the case of Cav2.1 cells the auxiliary subunit, β2α, is also expressed. Calcium channel lines that are used to generate the data will express either human Cav3.2, rat Cav3.2 or human Cav2.1. The human heart sodium channel, hNav1.5, are stably expressed in CHO cells.
Cell lines can be grown at 37° C. in humidified incubators, equilibrated with 95% air/5% CO2. CHO cells can be grown in Ham's F-12 medium. HEK cells can be grown in DMEM. All media are supplemented with 10% heat-inactivated fetal bovine serum, penicillin, streptomycin and appropriate selection antibiotics (zeocin, geneticin and/or hygromycin). Cells are passaged when 80% confluent or less.
IonWorks Screen for hCaV3.2
The extracellular buffer for experiments using this instrument contained the following (mM) (NaCl 125, HEPES 10, KCl 5.4, CaCl2 1.8, MgCl2 1.8, 0.2 BaCl2 pH 7.35). The IonWorks uses amphotericin to gain electrical access to the cell interior. The internal solution contained (mM concentrations): 130 K-gluconate, 20 KCl, 5 HEPES-KOH (pH 7.25), 2 CaCl2, 1 MgCl2. Amphotericin added at 5 mg in 65 mL when present (in 650 μL DMSO). All internal and external solutions for this experiment contain 1% DMSO. Cells were acutely trypsinized from a T-75 flask and resuspended in extracellular buffer at a density of 2×10^5 cells/mL.
Experiments were performed at room temperature. Transmembrane potential was held at −100 mV for 5 seconds prior to running the voltage protocol. During this time leak currents were measured during a step to −110 mV (200 milliseconds), T-type calcium currents were activated with a 250 millisecond step to −20 mV. This depolarization step was repeated for a total of 10 pulses with an interpulse interval of 1 second. Data were excluded if the following acceptance criteria were not met: total resistance for the pre-compound scan>65 MΩ, pre-compound current>250 pA, post compound total resistance>50 MΩ.
T-type currents were measured as the peak inward current minus the current at the end of the 250 msec step to −20 mV. After the recoding configuration was established there was a pre-compound measurement of current amplitude. Compound was added as a 3× solution containing 1% DMSO. After incubation with compound for 10 minutes currents were measured again. The current amplitude after compound addition was divided by the pre-compound current for pulse 10 to determine the fraction of current remaining after compound addition. For each compound, 8-point concentration-effect relationships were measured with ½ log serial dilutions.

TRPV1 [1] = target: T2, TRPV1 (Homo sapiens, UniProt Q8NER1); assay: TRPV1 Screening Assay (FLIPR); type: cell-based; conditions: HEK293-TetOFF-TRPV1, capsaicin (50 nM final), read-out: VR1 flipr CAPSAICIN IC50
T2 construct: expressed in transfected cells; host or cells: HEK293-Tet-OFF
Source text: • 1) Cell line: HEK293-Tet^OFF-TRPV1 • 2) Media: MEM (Invitrogen) • 3) 10% Tet-FBS (Clontech #8630-1) • 4) Fungizone (Gibco #15290-018 (100×)) • 5) Penn/Strep (Gibco #15140-122 (100×)) • 6) Geneticin (Gibco #10131-027 (100×)) • 7) Hygromycin (Clontech #8057-1) • 8) Doxycycline (Clontech #8634-1) • 9) Trypsin/EDTA (Gibco #25200-056) • 10) 100 mm cell culture plates (Falcon #3003) • 11) 96-well poly-D-lysine plates (Fisher #08-774-256) • 12) Hank's Balanced Salt Solution (HBSS) (GIBCO #14025-092) • 13) HEPES Buffer (GIBCO #15630-080) • 14) 30% BSA (Research Organics #1334A) • 15) Probenecid (Sigma P-8761) • 16) Fluo-4, AM (50 μg) (Molecular robes F-23917) • 17) Pluronic F-127 20% (Molecular Probes P-3000). • 18) capsazepine (Sigma C-191) • 19) capsaicin (Sigma M-2028) • 20) compound plates (NUNC #442587) • 21) black pipet tips 96-well FLIPR (Robbins Scientific 1043-24-0) • 22) Additional reagents available from Fisher: methanol, DMSO, NaOH Reagent Preparation: 1) Cells: HEK293-Tet^OFF-TRPV11
• and Doxycycline 2.5 μg/mL final (from a 1000× stock in PBS) • Cells must be fed and/or split every 2-3 days (to maintain transcriptional repression with Doxycycline). • Must be split no more than 1:5 (50-75% confluency) to maintain growth and viability. • Grown on regular tissue culture plates (e.g. Falcon 3003-100 mm) • SpliT-cells via Trypsin/EDTA: incubate with trypsin at room temperature no longer than 5 min (HEK293 cells have a tendency to ball up if over trypsinized). • Two days prior to assay, the cells are split into 96-well plates in cell media in the absence of doxycycline at a concentration of 40,000 cells/well in a volume of 200 μL, 2) FLIPR buffer is prepared fresh:
Add 5 mL of Probenecid Solution, prepared as follows: 710 mg of probenecid (Sigma P-8761) is solubilized in 5 mL of 1 N NaOH, 5 mL of above buffer s added for final volume of 10 mL (of which 5 mL goes back into FLIPR buffer)
Combine 42 μL of dye mixture with 11 mL of FLIPR buffer/96-well plate.
Stock solution of 0.1 M capsaicin is prepared in MeOH (50 mg+1.6 mL MeOH). Store 50 μL aliquots at −80° C.
For assay: • a) Dilute stock by adding 0.8 μL into 1 mL of MeOH (final=80 μM). • b) Add 50 μL of diluted stock to 20 mL of FLIPR buffer (final=0.2 μM) • c) Agonist solution is added 150 μL/well to 96-well plate. • d) Final agonist concentration on cells will be 50 nM. […] Laser is adjusted upwards for an average signal≧10,000/well and less than 10% variability. 7) Compound addition conditions are as follows: • FLIPR setup (dual sequence parameters): • Sequence 1: • First interval 1 sec/60 counts • Second interval 6 sec/50 counts • Fluid addition=50 μL • Pipettor=110 μL • Dispense Speed=30 μL/sec • Sequence 2: • Second interval 1 sec/60 counts • Second interval 6 sec/40 counts • Fluid addition=50 μL • Pipettor height=140 μL • Dispense Speed=50 μL/sec Data Analysis:
1) Data from both additions is reported as Max-Min for each well

TRPV1 [2] = target: T2, TRPV1; assay: TRPV1 Screening Assay (FLIPR); type: cell-based; conditions: HEK293-TetOFF-TRPV1, PMA, read-out: VR1 flipr PMA IC50
human NPC1L1 = target: T3, human NPC1L1 (Homo sapiens, UniProt Q9UHC9); assay: NPC1L1 Binding Assay, human; conditions: HEK-293 cells expressing human NPC1L1; competition with 250 nM BODIPY-labeled glucuronidated ezetimibe, 4 h at 37° C.
T3 construct: expressed in transfected cells; host or cells: HEK-293 (geneticin selection)
T3 sequence (Q9UHC9 22-1359): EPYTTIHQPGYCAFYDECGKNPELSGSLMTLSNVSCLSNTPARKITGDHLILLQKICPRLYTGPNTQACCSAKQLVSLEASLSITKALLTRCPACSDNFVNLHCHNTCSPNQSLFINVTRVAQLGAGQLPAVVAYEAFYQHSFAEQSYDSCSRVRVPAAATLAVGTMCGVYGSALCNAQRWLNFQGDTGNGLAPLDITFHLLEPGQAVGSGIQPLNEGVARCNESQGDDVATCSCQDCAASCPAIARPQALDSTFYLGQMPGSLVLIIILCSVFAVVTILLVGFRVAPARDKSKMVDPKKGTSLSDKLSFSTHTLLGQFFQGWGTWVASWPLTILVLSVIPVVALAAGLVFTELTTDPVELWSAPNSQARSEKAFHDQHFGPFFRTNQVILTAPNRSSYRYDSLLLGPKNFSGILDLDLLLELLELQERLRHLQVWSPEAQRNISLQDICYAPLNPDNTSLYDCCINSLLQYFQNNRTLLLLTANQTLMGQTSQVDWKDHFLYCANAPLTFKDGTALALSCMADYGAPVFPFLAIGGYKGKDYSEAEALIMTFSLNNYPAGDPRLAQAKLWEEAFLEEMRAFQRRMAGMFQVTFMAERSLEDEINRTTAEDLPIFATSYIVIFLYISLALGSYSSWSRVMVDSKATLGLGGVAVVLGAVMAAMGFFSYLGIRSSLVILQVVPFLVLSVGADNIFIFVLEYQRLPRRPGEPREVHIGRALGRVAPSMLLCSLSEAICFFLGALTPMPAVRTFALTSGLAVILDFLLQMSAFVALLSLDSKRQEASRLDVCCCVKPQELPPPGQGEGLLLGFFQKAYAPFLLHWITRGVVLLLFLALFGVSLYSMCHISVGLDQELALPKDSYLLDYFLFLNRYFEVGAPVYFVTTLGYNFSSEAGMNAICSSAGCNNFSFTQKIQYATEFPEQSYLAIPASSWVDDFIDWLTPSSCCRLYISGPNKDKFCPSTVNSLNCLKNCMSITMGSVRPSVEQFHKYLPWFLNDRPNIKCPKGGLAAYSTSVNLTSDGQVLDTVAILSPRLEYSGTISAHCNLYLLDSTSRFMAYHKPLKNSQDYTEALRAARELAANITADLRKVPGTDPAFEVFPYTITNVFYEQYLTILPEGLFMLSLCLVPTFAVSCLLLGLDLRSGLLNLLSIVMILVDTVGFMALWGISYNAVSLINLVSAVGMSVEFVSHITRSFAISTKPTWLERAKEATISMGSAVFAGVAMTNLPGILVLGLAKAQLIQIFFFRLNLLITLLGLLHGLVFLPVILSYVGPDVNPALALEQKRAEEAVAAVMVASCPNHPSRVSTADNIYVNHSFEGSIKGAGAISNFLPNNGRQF
Method: HEK-293 cells expressing human NPC1L1 were plated into 384-well black/clear plates (BD Biosciences, Bedford Mass.) for binding experiments the following day. Cell growth media (DMEM, 10% fetal calf serum, 1 mg/mL geneticin, 100 Units/mL penicillin) was aspirated. Cell growth media ([…]) containing 250 nM BODIPY-labeled glucuronidated ezetimibe was added to each well. Cell growth media ([…] containing the indicated concentration of compound was then added to the wells unlabeled glucuronidated ezetimibe […]) was used to determine nonspecific binding. The binding reaction was allowed to proceed for 4 h at 37° C. Subsequently the cell growth media was aspired and the cells washed once with PBS. The remaining fluorescent labeled glucuronidated ezetimibe bound to the cells was quantified using a FlexStation plate reader (Molecular Devices, Sunnyvale Calif.) to measure fluorescence intensity. Ki values were determined from competition binding curves (n=4 for each point) using Prism and Activity Base software.

T2 sequence (Q8NER1 whole entry, species assumed): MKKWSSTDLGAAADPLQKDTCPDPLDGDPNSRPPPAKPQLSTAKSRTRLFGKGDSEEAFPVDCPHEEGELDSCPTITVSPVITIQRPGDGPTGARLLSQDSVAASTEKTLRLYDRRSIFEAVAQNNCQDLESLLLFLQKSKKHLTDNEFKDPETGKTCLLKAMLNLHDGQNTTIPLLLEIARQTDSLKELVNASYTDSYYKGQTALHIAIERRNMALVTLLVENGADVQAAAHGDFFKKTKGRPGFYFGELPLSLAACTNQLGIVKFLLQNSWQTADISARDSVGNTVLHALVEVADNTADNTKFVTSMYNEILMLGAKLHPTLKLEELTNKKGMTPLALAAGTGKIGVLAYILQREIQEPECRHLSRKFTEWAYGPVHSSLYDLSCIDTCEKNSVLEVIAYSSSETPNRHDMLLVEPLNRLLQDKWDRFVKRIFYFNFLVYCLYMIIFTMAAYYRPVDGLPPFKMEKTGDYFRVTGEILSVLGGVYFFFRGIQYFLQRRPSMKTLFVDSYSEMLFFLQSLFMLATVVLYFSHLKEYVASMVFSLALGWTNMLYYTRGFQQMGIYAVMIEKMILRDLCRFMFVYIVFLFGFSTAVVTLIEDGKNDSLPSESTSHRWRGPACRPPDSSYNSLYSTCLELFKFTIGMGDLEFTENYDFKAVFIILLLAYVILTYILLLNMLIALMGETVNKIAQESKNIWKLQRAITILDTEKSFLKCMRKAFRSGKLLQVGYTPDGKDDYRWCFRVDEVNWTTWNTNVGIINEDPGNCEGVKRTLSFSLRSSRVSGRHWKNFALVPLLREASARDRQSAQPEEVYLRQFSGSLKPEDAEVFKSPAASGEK
T1 sequence (O95180 whole entry): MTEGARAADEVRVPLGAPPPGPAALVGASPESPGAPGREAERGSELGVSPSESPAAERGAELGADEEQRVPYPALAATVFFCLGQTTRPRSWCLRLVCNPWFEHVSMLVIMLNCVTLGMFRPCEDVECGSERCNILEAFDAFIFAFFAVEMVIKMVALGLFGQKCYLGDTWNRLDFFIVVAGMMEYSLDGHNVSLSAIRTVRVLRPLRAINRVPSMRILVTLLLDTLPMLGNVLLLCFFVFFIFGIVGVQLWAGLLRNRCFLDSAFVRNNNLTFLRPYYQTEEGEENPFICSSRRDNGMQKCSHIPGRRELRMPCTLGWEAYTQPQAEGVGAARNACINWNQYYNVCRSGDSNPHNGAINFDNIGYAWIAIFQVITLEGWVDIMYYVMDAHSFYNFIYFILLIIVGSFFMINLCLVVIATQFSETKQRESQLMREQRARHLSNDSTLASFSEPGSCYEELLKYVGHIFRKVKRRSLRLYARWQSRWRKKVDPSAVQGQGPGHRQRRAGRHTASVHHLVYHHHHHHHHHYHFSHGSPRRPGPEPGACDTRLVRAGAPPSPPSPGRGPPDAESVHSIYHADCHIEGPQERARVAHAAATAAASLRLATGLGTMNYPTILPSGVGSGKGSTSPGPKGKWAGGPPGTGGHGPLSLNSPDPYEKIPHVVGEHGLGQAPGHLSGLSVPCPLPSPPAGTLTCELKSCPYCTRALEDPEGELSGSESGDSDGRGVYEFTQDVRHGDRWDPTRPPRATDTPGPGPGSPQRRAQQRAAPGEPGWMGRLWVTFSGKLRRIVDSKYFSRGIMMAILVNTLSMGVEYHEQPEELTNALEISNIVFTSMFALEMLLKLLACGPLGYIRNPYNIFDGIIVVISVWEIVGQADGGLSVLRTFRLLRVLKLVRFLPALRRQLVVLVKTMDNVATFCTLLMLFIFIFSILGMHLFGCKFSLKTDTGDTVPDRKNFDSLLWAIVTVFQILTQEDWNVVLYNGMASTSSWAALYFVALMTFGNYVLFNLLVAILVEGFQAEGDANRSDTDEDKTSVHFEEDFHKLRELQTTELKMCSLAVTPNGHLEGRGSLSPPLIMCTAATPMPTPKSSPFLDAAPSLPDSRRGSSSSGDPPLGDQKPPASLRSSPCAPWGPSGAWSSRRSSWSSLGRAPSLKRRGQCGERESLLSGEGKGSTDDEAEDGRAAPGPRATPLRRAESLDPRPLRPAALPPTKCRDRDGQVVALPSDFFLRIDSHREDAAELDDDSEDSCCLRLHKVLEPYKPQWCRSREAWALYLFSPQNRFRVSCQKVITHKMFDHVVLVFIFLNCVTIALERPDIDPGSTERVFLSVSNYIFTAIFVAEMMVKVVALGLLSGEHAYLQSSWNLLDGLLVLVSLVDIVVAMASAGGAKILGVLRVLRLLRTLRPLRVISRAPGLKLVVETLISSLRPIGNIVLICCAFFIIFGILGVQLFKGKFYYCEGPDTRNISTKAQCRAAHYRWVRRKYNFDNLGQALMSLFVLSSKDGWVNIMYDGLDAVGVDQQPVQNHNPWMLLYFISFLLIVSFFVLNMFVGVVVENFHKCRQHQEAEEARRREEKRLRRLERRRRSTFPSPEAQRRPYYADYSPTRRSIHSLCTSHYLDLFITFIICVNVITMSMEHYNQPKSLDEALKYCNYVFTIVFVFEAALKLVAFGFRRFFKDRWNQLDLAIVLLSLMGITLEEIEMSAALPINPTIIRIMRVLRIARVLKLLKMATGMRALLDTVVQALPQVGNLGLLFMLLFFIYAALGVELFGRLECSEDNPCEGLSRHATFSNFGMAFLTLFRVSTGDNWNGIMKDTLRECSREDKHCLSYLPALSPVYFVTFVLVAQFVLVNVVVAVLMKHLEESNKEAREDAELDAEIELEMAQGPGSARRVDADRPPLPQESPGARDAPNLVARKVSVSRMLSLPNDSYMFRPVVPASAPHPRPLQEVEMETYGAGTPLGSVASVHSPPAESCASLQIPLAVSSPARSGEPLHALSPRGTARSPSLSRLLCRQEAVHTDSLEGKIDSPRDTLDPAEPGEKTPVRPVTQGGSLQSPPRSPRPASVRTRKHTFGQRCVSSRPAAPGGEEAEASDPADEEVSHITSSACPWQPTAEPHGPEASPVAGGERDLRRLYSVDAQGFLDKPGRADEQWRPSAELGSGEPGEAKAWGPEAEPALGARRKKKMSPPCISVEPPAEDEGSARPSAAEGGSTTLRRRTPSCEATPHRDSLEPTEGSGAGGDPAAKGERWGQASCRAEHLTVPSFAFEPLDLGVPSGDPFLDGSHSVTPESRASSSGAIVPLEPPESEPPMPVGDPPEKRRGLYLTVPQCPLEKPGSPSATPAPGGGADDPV

| IC50 (human Cav3.2) [µM] | IC50 (TRPV1 [1]) [µM] | Compound | further results |
| --- | --- | --- | --- |
| 0.359 | – | O=C(Nc1ccc(F)c(F)c1)N1CCC2(CC1)C(=O)N(c1ccccc1)C2c1ccc(Cl)cc1 (stereo not shown) | – |
| 0.423 | – | CC(C)N1C(=O)C2(CCN(C(=O)Nc3ccc(Cl)cc3)CC2)C1c1ccc(Cl)cc1 (stereo not shown) | – |
| 0.212 | – | CC(C)N1C(=O)C2(CCN(C(=O)Nc3cc(Cl)cc(Cl)c3)CC2)C1c1ccc(Cl)cc1 (stereo not shown) | – |
| 0.304 | – | CC(C)N1C(=O)C2(CCN(C(=O)Nc3ccc(F)c(F)c3)CC2)C1c1ccc(Cl)cc1 (stereo not shown) | – |
| 0.293 | – | O=C(Nc1ccc(F)c(F)c1)N1CCC2(CC1)C(=O)N(c1ccc(F)cc1)C2c1ccc(Cl)cc1 (stereo not shown) | – |
| 0.504 | – | O=C(Nc1cc(F)cc(F)c1)N1CCC2(CC1)C(=O)N(c1ccc(F)cc1)C2c1ccc(Cl)cc1 (stereo not shown) | – |
| 0.49 | – | O=C(Nc1ccc(F)c(F)c1)N1CCC2(CC1)C(=O)N(c1ccc(F)cc1)C2c1ccccn1 (stereo not shown) | – |
| 0.24 | – | O=C(Nc1ccccc1)N1CCC2(CC1)C(=O)N(c1cccc(Cl)c1)C2c1ccccn1 (stereo not shown) | – |
| 0.117 | – | O=C(Nc1ccc(F)c(F)c1)N1CCC2(CC1)C(=O)N(c1cccc(Cl)c1)C2c1ccccn1 (stereo not shown) | – |
| – | 0.171 | O=C(Nc1ccc(C(F)(F)F)cc1)N1CCC2(CC1)C(=O)N(c1ccccc1)C2c1ccccc1 (stereo not shown) | – |
| – | 0.184 | O=C(Nc1ccc(C(F)(F)F)cc1)N1CCC2(CC1)C(=O)N(c1cncnc1)C2c1ccccc1 (stereo not shown) | IC50 (TRPV1 [2]): 0.21 µM |
| – | 0.201 | O=C(Nc1cccc2ccccc12)N1CCC2(CC1)C(=O)N(c1ccccc1)C2c1ccccn1 (stereo not shown) | IC50 (TRPV1 [2]): 0.233 µM |
| – | 0.24 | CC(C)c1ccc(NC(=O)N2CCC3(CC2)C(=O)N(c2cncnc2)C3c2ccccc2)cc1 (stereo not shown) | IC50 (TRPV1 [2]): 0.155 µM |
| – | 0.259 | O=C(Nc1ccc(Oc2ccccc2)cc1)N1CCC2(CC1)C(=O)N(c1ccccc1)C2c1ccccn1 (stereo not shown) | IC50 (TRPV1 [2]): 0.14 µM |
| – | 0.301 | CC(C)c1ccc(NC(=O)N2CCC3(CC2)C(=O)N(c2cncnc2)C3c2ccccn2)cc1 (stereo not shown) | IC50 (TRPV1 [2]): 0.252 µM |
| – | – | COc1ccc(Cl)cc1NC(=O)N1CCC2(CC1)C(=O)N(c1ccccc1)C2c1ccccc1 (stereo not shown) | Ki (human NPC1L1): 6.36 µM |
| – | – | O=C(Nc1ccccc1C(F)(F)F)N1CCC2(CC1)C(=O)N(c1ccccc1)C2c1ccccc1 (stereo not shown) | Ki (human NPC1L1): 8.13 µM |
| – | – | Cc1cccc(C)c1NC(=O)N1CCC2(CC1)C(=O)N(c1ccccc1)C2c1ccccc1 (stereo not shown) | Ki (human NPC1L1): 8.19 µM |
| – | – | O=C(Nc1cccc2ccccc12)N1CCC2(CC1)C(=O)N(c1ccccc1)C2c1ccccc1 (stereo not shown) | Ki (human NPC1L1): 2.49 µM |
| 0.192 | – | Cc1c(Cl)cccc1NC(=O)N1CCC2(CC1)C(=O)N(c1ccccc1)C2c1ccccc1 (stereo not shown) [drawing 414] | – |
